This is an account of results in ChEMBL document CHEMBL1143465, “New fluorinated pyrrolidine and azetidine amides as dipeptidyl peptidase IV inhibitors” (Bioorg Med Chem Lett, 2005).

Each structure is given as a SMILES string.

The test has as its system Mus musculus. The test can be described thus: Percent inhibition of blood glucose concentration measured 30 min after 10 mg/kg dosing to fasted mice followed 15 min later by 1 g/kg oral glucose load. Format: functional.
Take `N[C@H](C(=O)N1CC(F)C(F)C1)C1CCCCC1` (stereo partly specified): the inhibition in vivo at 10 mg/kg is 60%.

On to `N[C@H](C(=O)N1CC(F)C1)C1CCCCC1`, for which the inhibition in vivo at 10 mg/kg was 70%.

As for `N[C@H](C(=O)N1CCC(F)(F)C1)C1CCCCC1`, the inhibition in vivo at 10 mg/kg worked out at 78%.

In the case of `N[C@H](C(=O)N1CC(F)(F)C1)C1CCCCC1`, the inhibition in vivo at 10 mg/kg came out at 109%.

Turning to `N[C@H](C(=O)N1CC(F)(F)C(F)(F)C1)C1CCCCC1`, the inhibition in vivo at 10 mg/kg was determined as 59%.

In the case of `N[C@H](C(=O)N1CCCC1)C1CCCCC1`, the inhibition in vivo at 10 mg/kg amounted to 69%.
